In patent US7427680B2, “Fluorogenic substrates for BETA-lactamase gene expression” (The Regents of the University of California, priority 2001, dated 2008):

Tests used:
[1] = test system: Bla-stably-transfected C6 glioma cells; assay: Fluorescence imaging of Bla activity in living cells; type: cell-based; details: loaded in Hank's Balanced Salts Solution 25 min, room temperature; excitation 540/25, emission 635/55
Protocol: FIG. 13A illustrates the structures of CR2 and CR2/AM. FIG. 13B presents fluorescence images (40×magnification) of wild type (right) and Bla-stably-transfected (left) C6 glioma cells loaded with CR2/AM in Hank's Balanced Salts Solution for 25 min at room temperature. The excitation filter was set at 540/25 (540 nm peak with a width of 25 nm around the peak). The emission filter was set at 635/55.

Bla = Bla (Escherichia coli, UniProt P62593); details: cited from earlier work
Chain of Bla (P62593 24-286 limits assumed): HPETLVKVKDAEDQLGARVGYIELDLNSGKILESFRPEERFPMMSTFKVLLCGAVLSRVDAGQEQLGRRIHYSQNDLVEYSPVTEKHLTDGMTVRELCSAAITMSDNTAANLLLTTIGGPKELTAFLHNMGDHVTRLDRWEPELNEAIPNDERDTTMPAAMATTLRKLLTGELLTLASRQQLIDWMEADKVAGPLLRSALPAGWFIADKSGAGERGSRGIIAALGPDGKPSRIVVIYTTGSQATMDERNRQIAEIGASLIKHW

| SMILES | imaging of Bla activity in living cells [1] | Km (Bla; Zlokarnik et al., Science 1998) [µM] | kcat (Bla; Zlokarnik et al., Science 1998) [s⁻¹] | enhancement of fluorescent emission (Bla; at similar wavelengths (about 460 nm)) [fold] |
| --- | --- | --- | --- | --- |
| CC(=O)OCOC(=O)C1=C(/C=C\COc2ccc3nc4ccc(=O)cc-4oc3c2)C[S@H](O)[C@@H]2[C@H](NC(=O)Cc3cccs3)C(=O)N12 [CR2/AM] | able to image the Bla activity |  |  |  |
| O=C(CNC(=O)c1cc2cc(Cl)c(O)cc2oc1=O)N[C@@H]1C(=O)N2C(C(=O)O)=C(CSc3ccc4c(c3)C(=O)OC43c4ccc(O)cc4Oc4cc(O)ccc43)CS[C@H]12 [CCF2] |  | 23 | 29 | 20 |
